Source: ChEMBL document CHEMBL4038297, “Fluorinated tranylcypromine analogues as inhibitors of lysine-specific demethylase 1 (LSD1, KDM1A)” (Bioorg Med Chem Lett, 2017)
pIC50: −log10 of the molar value.

What was measured:
[1] = biological target: Lysine-specific histone demethylase 1A (Homo sapiens, UniProt O60341); experiment: Inhibition of recombinant human His-tagged LSD1 expressed in Escherichia coli BL21 (DE3) using H3K4me2 peptide as substrate preincubated for 10 mins followed by substrate addition measured after 20 mins by Amplex red dye based fluorescence assay
THP-1 = experiment: Antiproliferative activity against human THP1 cells after 72 hrs by CellTitre-Glo assay; conditions: THP-1, 72 h
MV4-11 = experiment: Antiproliferative activity against human MV411 cells after 72 hrs by CellTitre-Glo assay; conditions: MV4-11, 72 h

| SMILES | pIC50 [1] | pIC50 (THP-1) | pIC50 (MV4-11) |
| --- | --- | --- | --- |
| N[C@H]1C[C@@]1(F)c1ccc(F)cc1 | < 4.60 |  |  |
| CCOc1ccc([C@]2(F)C[C@@H]2N)cc1 (relative stereo) | < 4.30 |  |  |
| N[C@H]1C[C@]1(F)c1cccc(F)c1 (relative stereo) |  | 5.80 | 5.31 |
| N[C@H]1C[C@@]1(F)c1cccc(F)c1 (relative stereo) |  | 5.15 | 5.09 |
| N[C@H]1C[C@]1(F)c1ccc(F)cc1 | < 4.60 |  |  |
| COc1cccc([C@@]2(F)C[C@@H]2N)c1 (relative stereo) |  | 5.07 | 5.72 |
| N[C@H]1C[C@]1(F)c1ccccc1 | < 4.60 |  |  |
| Cc1ccc([C@@]2(F)C[C@@H]2N)cc1 | < 4.60 |  |  |
| N[C@H]1C[C@@]1(F)c1ccc([N+](=O)[O-])cc1 (relative stereo) | < 4.30 |  |  |
| N[C@H]1C[C@@]1(F)c1ccccc1 | < 4.60 |  |  |
| N[C@H]1C[C@]1(F)c1cccc([N+](=O)[O-])c1 (relative stereo) |  | < 4.52 | < 4.52 |
| CCOc1ccc([C@@]2(F)C[C@@H]2N)cc1 (relative stereo) | < 4.30 |  |  |
| COc1ccc([C@@]2(F)C[C@@H]2N)cc1 | < 4.60 |  |  |
| N[C@H]1C[C@]1(F)c1ccc([N+](=O)[O-])cc1 (relative stereo) | < 4.30 |  |  |
| Cc1ccc([C@]2(F)C[C@@H]2N)cc1 | < 4.60 |  |  |
| COc1ccc([C@]2(F)C[C@@H]2N)cc1 | < 4.60 |  |  |
| N[C@@H]1C[C@H]1c1ccccc1.N[C@H]1C[C@@H]1c1ccccc1 (racemic) [TRANYLCYPROMINE] |  | 3.09 | 3.20 |
